Assay results reported in patent US20230263900A1, “DENDRIMER-DRUG CONJUGATE” (priority 2020, published 2023).
Read-outs that look alike come from different tables or passages of the source.

Columns and labels:
[1] = Viscosity measurements (Viscosity Method 1); assay type: physicochemical; details: 50 mg/mL Remdesivir equivalents in EtOH: Water (1:9 v/v)
Experimental: Viscosities were measured on Anton Paar ViscoQC300 Viscometer using CC-12 cup.
Viscosity Method 1: A reference standard solution (Standard Type: RT500, CAS No. 63148-62-9, Paragon Scientific Ltd) was first recorded and found to be within the range of reported value (at 20° C.: found 556.6 cP, theoretical 551.0 cP; at 25° C.: found 503.3 cP, theoretical 498.6 cP). Accurately weighed quantities of respective conjugates were dissolved in EtOH:Water […] to make a 50 mg/mL Remdesivir equivalent solution (total volume 2.30-2.40 mL) and the viscosity of the solution was recorded at 20° C. and 25° C.
Viscosities of 2 formulations containing either RHa-5 or RHa-17 in EtOH: Water (1:9 v/v) were measured using Viscosity Method 1

[2] = Release of Remdesivir in PBS buffer (Release Method 1); assay type: physicochemical; details: PBS buffer with 10% v/v DMSO, pH 7.4, 37° C.
Experimental: Release Method 1: An accurately weighed amount of the Remdesivir-dendrimer (10 mg) construct was dissolved in pH 7.4 PBS buffer:DMSO (9:1 v/v) and the volume made up to 20.0 mL in a volumetric flask to give a 0.5 mg/mL stock solution. The stock solution was aliquoted into several 2 mL screw-cap vials, the caps fitted and the vials heated at 37° C. The aliquoted solutions were analyzed at different time points by HPLC (HPLC Method 3). The concentration of Remdesivir RHa-1 was calculated by comparing the area under the peak associated with Remdesivir RHa-1 to a standard curve in MeCN:DMSO (9:1, v/v). The percentage of Remdesivir RHa-1 released is the percentage of available Remdesivir RHa-1 based on the loading of the construct as determined by ^1H NMR analysis (API Loading Method 1).
The extent to which the Remdesivir RHa-1 was released over time in PBS buffer (with 10% v/v DMSO) (pH 7.4) at 37° C. was determined for 5 constructs, RHa-17, RHa-15, RHa-11, RHa-5 and RHa-3 (Release Method 1) over 120 hours.
Trace amounts of other components were also observed (presumed to be degradation products of Remdesivir RHa-1). The area under the resolvable (separated) peaks associated with these degradants was also added to the peak area associated with released Remdesivir RHa-1.
BHALys [Lys]2[Lys]4[Lys]8[Lys]16[Lys]32[(α-NH-6N-TDA-Remdesivir)32(ε-NH-COPEG2000)32] RHa-5 contained 1.77% free Remdesivir RHa-1 at t=0 min. The value of released Remdesivir RHa-1 shown in FIG. 3 has been adjusted to take this into account.

Solubility studies = assay type: physicochemical
Experimental: The solubility of BHALys[Lys]2[Lys]4[Lys]8[Lys]16[Lys]32[(α-NH-3′ O-Glu-Remdesivir)32(ε-NH-COPEG2000)32] RHa-3 in water was determined to be ≥200 mg/mL (or ≥43.6 mg/mL Remdesivir RHa-1) by adding water (250 μL) to 50.0 mg of BHALys [Lys]2[Lys]4[Lys]8[Lys]16[Lys]32[(α-NH-3′ O-Glu-Remdesivir)32(ε-NH-COPEG2000)32] and swirling briefly. After 2 min, the resulting solution was visually inspected for particulates and found to be a clear solution (see FIG. 2). Solutions shown are 40 mg/ml Remdesivir equivalents (equivalent to 200 mg/ml of conjugate RHa-3).
The solubility of BHALys[Lys]2[Lys]4[Lys]8[Lys]16[Lys]32[(α-NH-6N-TDA-Remdesivir)32(ε-NH-COPEG2000)32] RHa-5, in EtOH:Water (1:9 v/v) was determined to be ≥543 mg/mL (or ≥107 mg/mL Remdesivir RHa-1) by adding water EtOH:Water (1:9 v/v, 400 μL) to 380 mg of RHa-5. The mixture was swirled briefly and left to stand at rt. After 1.5 h the resulting solution (volume recorded=700 μL) was visually inspected for particulates and found to be a clear solution.
The solubility of BHALys[Lys]2[Lys]4[Lys]8[Lys]16[Lys]32[(α-NH-6N-TDA-Remdesivir)32(ε-NH-COPEG1000)32] RHa-17 in EtOH:Water (1:9 v/v) was determined to be ≥354* mg/mL (or ≥85 mg/mL Remdesivir RHa-1) by adding EtOH:Water (1:9 v/v, 958 μL) portionwise to 525 mg of RHa-17, over a period of 1.5 h with intermittent swirling. The resulting solution was visually inspected for particulates and found to be a clear solution.
(*Total volume not recorded. Assumes 1 mg construct contributes to 1 μL of final solution (i.e., total volume of final solution=1483 μL)).

[3] = cited from earlier work
Coronavirus infection = details: cited from earlier work

Q: What does the source list for “BHALys[Lys]2[Lys]4[Lys]8[Lys]16[Lys]32[(α-NH-6N-TDA-Remdesivir)32(ε-NH-COPEG2000)32] [RHa-5]”?
A: Viscosity at 20° C. [1]: 144.2 cP; Viscosity at 25° C. [1]: 100.6 cP; Approx. Time taken for 50% Remdesivir release [2]: ~58 h; Solubility in EtOH:Water (1:9 v/v) (Solubility studies; EtOH:Water (1:9 v/v), conjugate mass, rt): ≥ 543 mg/mL; Solubility in EtOH:Water (1:9 v/v), as Remdesivir RHa-1 (Solubility studies; EtOH:Water (1:9 v/v), expressed as Remdesivir RHa-1): ≥ 107 mg/mL

Q: For “BHALys[Lys]2[Lys]4[Lys]8[Lys]16[Lys]32[(α-NH-3′O-TDA-Remdesivir)32(ε-NH-COPEG2000)32] [RHa-15]”, which “Approx. Time taken for 50% Remdesivir release” value [2] is on record?
A: ~9 h

Q: What does the source list for `CCC(CC)COC(=O)[C@H](C)N[P@](=O)(OC[C@H]1O[C@@](C#N)(c2ccc3c(N)ncnn23)[C@H](O)[C@@H]1O)Oc1ccccc1` [RDV, 2-Ethylbutyl (2S)-2-{[(S)-{[(2R,3S,4R,5R)-5-(4-aminopyrrolo[2,1-f][1,2,4]triazin-7-yl)-5-cyano-3,4-dihydroxytetrahydrofuran-2-yl]methoxy}(phenoxy)phosphoryl]amino}propanoate]?
A: Cmax ([3]; after 200 mg dose of Remdesivir): 5440 ng/mL; Median terminal half-life ([3]; human, in vivo): approximately 1 hours; Plasma half-life ([3]; in vivo, iv): approximately 1 hour; Clinical recovery, figure in parentheses (share of patients) (Coronavirus infection; 5-Day RDV, n = 200, Day 14): (65); Clinical recovery, patients (Coronavirus infection; 5-Day RDV, n = 200, Day 14): 129; Death, figure in parentheses (share of patients) (Coronavirus infection; 5-Day RDV, n = 200, Day 14): (8); Death, patients (Coronavirus infection; 5-Day RDV, n = 200, Day 14): 16; Discharge, figure in parentheses (share of patients) (Coronavirus infection; 5-Day RDV, n = 200, Day 14): (60); Discharge, patients (Coronavirus infection; 5-Day RDV, n = 200, Day 14): 120; ≥ 2-point improvement in ordinal scale, figure in parentheses (share of patients) (Coronavirus infection; 5-Day RDV, n = 200, Day 14): (65); ≥ 2-point improvement in ordinal scale, patients (Coronavirus infection; 5-Day RDV, n = 200, Day 14): 129; AE leading to discontinuation, figure in parentheses (share of patients) (Coronavirus infection; 5-Day RDV, n = 200): (5); AE leading to discontinuation, patients (Coronavirus infection; 5-Day RDV, n = 200): 9; Any adverse event (AE), figure in parentheses (share of patients) (Coronavirus infection; 5-Day RDV, n = 200): (71); Any adverse event (AE), patients (Coronavirus infection; 5-Day RDV, n = 200): 141; Grade ≥ 3 study drug-related AE, figure in parentheses (share of patients) (Coronavirus infection; 5-Day RDV, n = 200): (4); Grade ≥ 3 study drug-related AE, patients (Coronavirus infection; 5-Day RDV, n = 200): 8; Study drug-related serious adverse event (SAE), figure in parentheses (share of patients) (Coronavirus infection; 5-Day RDV, n = 200): (2); Study drug-related serious adverse event (SAE), patients (Coronavirus infection; 5-Day RDV, n = 200): 3; Time to clinical improvement for 50% of patients (Coronavirus infection; 5-day treatment group): 10 days; Clinical recovery, figure in parentheses (share of patients) (Coronavirus infection; 10-Day RDV, n = 197, Day 14): (54); Clinical recovery, patients (Coronavirus infection; 10-Day RDV, n = 197, Day 14): 106; Death, figure in parentheses (share of patients) (Coronavirus infection; 10-Day RDV, n = 197, Day 14): (11); Death, patients (Coronavirus infection; 10-Day RDV, n = 197, Day 14): 21; Discharge, figure in parentheses (share of patients) (Coronavirus infection; 10-Day RDV, n = 197, Day 14): (52); Discharge, patients (Coronavirus infection; 10-Day RDV, n = 197, Day 14): 103; ≥ 2-point improvement in ordinal scale, figure in parentheses (share of patients) (Coronavirus infection; 10-Day RDV, n = 197, Day 14): (54); ≥ 2-point improvement in ordinal scale, patients (Coronavirus infection; 10-Day RDV, n = 197, Day 14): 107; AE leading to discontinuation, figure in parentheses (share of patients) (Coronavirus infection; 10-Day RDV, n = 197): (10); AE leading to discontinuation, patients (Coronavirus infection; 10-Day RDV, n = 197): 20; Any adverse event (AE), figure in parentheses (share of patients) (Coronavirus infection; 10-Day RDV, n = 197): (74); Any adverse event (AE), patients (Coronavirus infection; 10-Day RDV, n = 197): 145; Grade ≥ 3 study drug-related AE, figure in parentheses (share of patients) (Coronavirus infection; 10-Day RDV, n = 197): (5); Grade ≥ 3 study drug-related AE, patients (Coronavirus infection; 10-Day RDV, n = 197): 10; Study drug-related serious adverse event (SAE), figure in parentheses (share of patients) (Coronavirus infection; 10-Day RDV, n = 197): (2); Study drug-related serious adverse event (SAE), patients (Coronavirus infection; 10-Day RDV, n = 197): 4; Time to clinical improvement for 50% of patients (Coronavirus infection; 10-day treatment group): 11 days; Appearance in water at 40 mg/mL (Solubility studies; water, 40 mg/mL, FIG. 2): suspension
